Measured values reported in patent US12133529B2, “Herbicidal phenylethers” (BASF SE, priority 2017, dated 2024).

How the values were obtained:
Assay type in all cases: in vivo
[1] = tested on: AMARE (Amaranthus retroflexus); assay: greenhouse herbicidal activity, post-emergence treatment; settings: post-emergence method, application rate 16 g/ha, scale from 0 to 100, read-out: herbicidal activity against AMARE
Description: (§1) The seeds of the test plants were sown separately for each species. For the post-emergence treatment, the test plants were first grown to a height of 3 to 15 cm, depending on the plant habit, and only then treated with the active ingredients which had been suspended or emulsified in water. For this purpose, the test plants were either sown directly and grown in the same containers, or they were first grown separately as seedlings and transplanted into the test containers a few days prior to treatment. Depending on the species, the plants were kept at 10-25° C. or 20-35° C., respectively. The test period extended over 2 to 4 weeks. During this time, the plants were tended, and their response to the individual treatments was evaluated. Evaluation was carried out using a scale from 0 to 100. 100 means no emergence of the plants, or complete destruction of at least the aerial moieties, and 0 means no damage, or normal course of growth. A good herbicidal activity is given at values of at least 70 and a very good herbicidal activity is given at values of at least 85. [table]

[2] = tested on: CHEAL (Chenopodium album); assay: as above; settings: post-emergence method, application rate 16 g/ha, scale from 0 to 100, read-out: herbicidal activity against CHEAL
Description: as §1

[3] = tested on: ECHCG (Echinocloa crus-galli); assay: as above; settings: scale from 0 to 100; for pest or weed control at 16 g/ha: Echinochloa crus-galli, post-emergence method, application rate 16 g/ha, read-out: herbicidal activity against ECHCG; for damages unwanted plants ECHCG: post-emergence application, 2 g/ha, control 21 days after treatment (greenhouse)
Description: as §1

SETVI (Setaria viridis) = assay: as above; settings: post-emergence method, application rate 16 g/ha, scale from 0 to 100, read-out: herbicidal activity against SETVI
Description: as §1

ZEAMX (Zea mays) [4] = assay: greenhouse crop plant damage, post-emergence treatment; settings: post-emergence application, 2 g/ha, control 21 days after treatment (greenhouse), scale from 0 to 100
Description: as §1

[5] = tested on: AMARE (Amaranthus retroflexus); assay: greenhouse herbicidal activity, pre-emergence treatment; settings: pre-emergence application, 32 g/ha, control 21 days after treatment (greenhouse), scale from 0 to 100
Description: (§2) The seeds of the test plants were sown separately for each species. For the pre-emergence treatment, the active ingredients, which had been suspended or emulsified in water, were applied directly after sowing by means of finely distributing nozzles. The containers were irrigated gently to promote germination and growth and subsequently covered with transparent plastic hoods until the plants had rooted. This cover caused uniform germination of the test plants, unless this had been impaired by the active ingredients. Depending on the species, the plants were kept at 10-25° C. or 20-35° C., respectively. The test period extended over 2 to 4 weeks. During this time, the plants were tended, and their response to the individual treatments was evaluated. Evaluation was carried out using a scale from 0 to 100. 100 means no emergence of the plants, or complete destruction of at least the aerial moieties, and 0 means no damage, or normal course of growth. A good herbicidal activity is given at values of at least 70 and a very good herbicidal activity is given at values of at least 85. [table]

ZEAMX (Zea mays) [6] = assay: greenhouse crop plant damage, pre-emergence treatment; settings: pre-emergence application, 32 g/ha, control 21 days after treatment (greenhouse), scale from 0 to 100
Description: as §2

| SMILES | pest or weed control at 16 g/ha [1] [%] | pest or weed control at 16 g/ha [2] [%] | pest or weed control at 16 g/ha [3] [%] | pest or weed control at 16 g/ha (SETVI (Setaria viridis)) [%] | damages unwanted plants ECHCG [3] | damages crop plants ZEAMX (ZEAMX (Zea mays) [4]) | damages unwanted plants AMARE [5] | damages crop plants ZEAMX (ZEAMX (Zea mays) [6]) |
| --- | --- | --- | --- | --- | --- | --- | --- | --- |
| CCOC(=O)COc1ncccc1Oc1cc(-c2nn(C)c(C(F)(F)F)cc2=O)c(F)cc1Cl [Example 15] | ≥ 85 | ≥ 85 | ≥ 85 | ≥ 85 |  |  |  |  |
| CCOC(=O)COc1ccccc1Oc1cc(-n2c(=O)c(C)c(C(F)(F)F)n(C)c2=O)c(F)cc1Cl [Example 16] | ≥ 85 | ≥ 85 | ≥ 85 | ≥ 85 | 100 | 10 |  |  |
| CCOC(=O)COc1ccccc1Oc1cc(-n2c(=S)cc(C(F)(F)F)n(C)c2=O)c(F)cc1Cl [Example 17] | ≥ 85 | ≥ 85 | ≥ 85 | ≥ 85 |  |  | 100 | 0 |
| CCOC(=O)COc1ncccc1Oc1cc(-n2nc3n(c2=O)CCCC3)c(Cl)cc1Cl [Example 2, ethyl 2-[[3-[2,4-dichloro-5-(3-oxo-5,6,7,8-tetrahydro-[1,2,4]triazolo[4,3-a]pyridin-2-yl)phenoxy]-2-pyridyl]oxy]acetate] | ≥ 85 | ≥ 85 | ≥ 85 | ≥ 85 |  |  |  |  |
| CCOC(=O)COc1ncccc1Oc1cc(-c2ncc(C(F)(F)F)cc2Cl)c(F)cc1Cl [Example 18] | ≥ 85 | ≥ 85 | ≥ 85 | ≥ 85 |  |  |  |  |
| CCOC(=O)COc1ccccc1Oc1cc(-n2c(=O)cc(C(F)(F)F)n(C)c2=O)c(F)cc1Cl [compound a-9, reference compound] |  |  |  |  | 98 | 70 | 100 | 40 |
| CCOC(=O)C(C)Oc1ncccc1Oc1cc(-n2nc3n(c2=O)CCCC3)c(Cl)cc1Cl (stereo not drawn) [Example 9] | ≥ 85 | ≥ 85 | ≥ 85 |  |  |  |  |  |
| O=C(O)COc1ncccc1Oc1cc(-c2ncc(C(F)(F)F)cc2Cl)c(F)cc1Cl [Example 19] | ≥ 85 | ≥ 85 | ≥ 85 | ≥ 85 |  |  |  |  |
| CCOC(=O)COc1ncccc1Oc1cc(-c2nn(C)c(OC(F)F)c2Cl)c(F)cc1Cl [Example 1, ethyl 2-[[3-[2-chloro-5-[4-chloro-5-(difluoromethoxy)-1-methyl-pyrazol-3-yl]-4-fluoro-phenoxy]-2-pyridyl]oxy]acetate] | ≥ 85 | ≥ 85 | ≥ 85 | ≥ 85 |  |  |  |  |
| CCOC(=O)COc1ncccc1Oc1cc(-n2c(=O)c(C)c(C(F)(F)F)n(C)c2=O)c(F)cc1[N+](=O)[O-] [Example 4, Ethyl 2-[[3-[5-[3,5-dimethyl-2,6-dioxo-4-(trifluoromethyl)pyrimidin-1-yl]-4-fluoro-2-nitro-phenoxy]-2-pyridyl]oxy]acetate] | ≥ 85 | ≥ 85 | ≥ 85 | ≥ 85 |  |  |  |  |
| O=C(O)COc1ncccc1Oc1cc(-n2nc3n(c2=O)CCCC3)c(Cl)cc1Cl [Example 8] | ≥ 85 | ≥ 85 | ≥ 85 | ≥ 85 |  |  |  |  |
| COC(=O)C(OC)Oc1ccccc1Oc1cc(-n2nc3n(c2=O)CCCC3)c(Cl)cc1Cl (stereo not drawn) [Example 7] | ≥ 85 | ≥ 85 | ≥ 85 | ≥ 85 |  |  |  |  |
